pIC50: −log10 of the molar value.
target: USP30 (Homo sapiens (Human), UniProt Q70CQ3); test: USP30 biochemical IC50 assay; details: fluorescence polarisation, TAMRA labelled peptide linked to ubiquitin as substrate; enzyme and compound incubated 30 min at room temp; read-out: IC50 range
Procedure: Reactions were performed in duplicate in black 384 well plates (small volume, Greiner 784076) in a final reaction volume of 21 μl. Either 1 μl of 50% DMSO or diluted compound was added to the plate. USP30 was diluted in reaction buffer (40 mM Tris, pH 7.5, 0.005% Tween 20, 0.5 mg/ml BSA, 5 mM beta-mercaptoethanol) to the equivalent of 0.05 μl/well and 10 μl of diluted USP30 was added to the compound. Enzyme and compound were incubated for 30 min at room temp. Reactions were initiated by the addition of 50 nM of TAMRA labelled peptide linked to ubiquitin via an iso-peptide bond as fluorescence polarisation substrate. Reactions were read immediately after addition of substrate and following a 2 h incubation at room temperature. Readings were performed on a Pherastar Plus (BMG Labtech). λ Excitation 540 nm; λ Emission 590 nm.

Chain of USP30 (Q70CQ3 57-517): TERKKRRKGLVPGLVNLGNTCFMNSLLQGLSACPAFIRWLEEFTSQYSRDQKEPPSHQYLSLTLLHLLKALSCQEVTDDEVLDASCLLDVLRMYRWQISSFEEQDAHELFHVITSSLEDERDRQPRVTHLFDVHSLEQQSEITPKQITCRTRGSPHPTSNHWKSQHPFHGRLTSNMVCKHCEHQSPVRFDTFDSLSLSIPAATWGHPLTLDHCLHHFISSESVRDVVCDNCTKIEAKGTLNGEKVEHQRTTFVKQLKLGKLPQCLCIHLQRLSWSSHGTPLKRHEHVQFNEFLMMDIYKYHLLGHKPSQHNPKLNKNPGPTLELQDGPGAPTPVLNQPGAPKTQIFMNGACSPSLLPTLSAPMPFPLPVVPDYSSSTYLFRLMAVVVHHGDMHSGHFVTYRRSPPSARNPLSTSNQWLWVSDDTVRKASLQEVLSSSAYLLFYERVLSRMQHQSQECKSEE

Row | SMILES | pIC50
1 | N#Cc1cccc(-c2ccnc(NC(=O)[C@@]3(F)CCCN(C#N)C3)c2)c1 [Example 52, (R)-1-Cyano-N-(4-(3-cyanophenyl)pyridin-2-yl)-3-fluoropiperidine-3-carboxamide] | 6.00 to 7.00
2 | N#Cc1cccc(-c2ccnc(NC(=O)[C@@H]3CN(C#N)CCO3)c2)c1 [Example 54, (S)-4-Cyano-N-(4-(3-cyanophenyl)pyridin-2-yl)morpholine-2-carboxamide] | 5.00 to 6.00
3 | N#Cc1cccc(-c2ccnc(NC(=O)[C@H]3CCCN(C#N)C3)c2)c1 [Example 57, (S)-1-Cyano-N-(4-(3-cyanophenyl)pyridin-2-yl)piperidine-3-carboxamide] | 5.00 to 6.00
4 | N#CN1CC(C(=O)Nc2nc3ccc(-c4cn[nH]c4)cc3s2)CC(F)(F)C1 (stereo not drawn) [Example 59, N-(6-(1H-Pyrazol-4-yl)benzo[d]thiazol-2-yl)-1-cyano-5,5-difluoropiperidine-3-carboxamide] | 5.00 to 6.00
5 | N#CN1CCO[C@@H](C(=O)Nc2cc(-c3cccc(Cl)c3)cnn2)C1 [Example 62, (R)—N-(5-(3-Chlorophenyl)pyridazin-3-yl)-4-cyanomorpholine-2-carboxamide] | 6.00 to 7.00
6 | N#Cc1ccc2cnc(NC(=O)[C@H]3CN(C#N)CCO3)cc2c1 [Example 65, (R)-4-Cyano-N-(6-cyanoisoquinolin-3-yl)morpholine-2-carboxamide] | 5.00 to 6.00
7 | N#Cc1ccnc(N2CCC(NC(=O)[C@H]3CN(C#N)CCO3)C2)c1 (stereo partly drawn) [Example 66, (2R)-4-Cyano-N-(1-(4-cyanopyridin-2-yl)pyrrolidin-3-yl)morpholine-2-carboxamide] | 5.00 to 6.00
8 | CN1CCN(C#N)C[C@@H]1C(=O)Nc1ncc(-c2ccccc2)s1 [Example 68] | 5.00 to 6.00
9 | N#Cc1cccc(-c2cc(NC(=O)C3(F)CCCN(C#N)C3)on2)c1 (stereo not drawn) [Example 73, 1-Cyano-N-(3-(3-cyanophenyl)isoxazol-5-yl)-3-fluoropiperidine-3-carboxamide] | 6.00 to 7.00
10 | N#CN1CCC[C@](F)(C(=O)Nc2cc(-c3cccc(Cl)c3)on2)C1 [Example 74, (R)—N-(5-(3-Chlorophenyl)isoxazol-3-yl)-1-cyano-3-fluoropiperidine-3-carboxamide] | > 7.00
11 | N#CN1CCC[C@](F)(C(=O)Nc2cc(-c3cccc(Cl)c3)no2)C1 [Example 76, (R)—N-(3-(3-Chlorophenyl)isoxazol-5-yl)-1-cyano-3-fluoropiperidine-3-carboxamide] | > 7.00
12 | N#Cc1cccc(-n2cnc(NC(=O)[C@@]3(F)CCCN(C#N)C3)c2)c1 [Example 79, (R)-1-Cyano-N-(1-(3-cyanophenyl)-1H-imidazol-4-yl)-3-fluoropiperidine-3-carboxamide] | 6.00 to 7.00

Now from value to compound:

Row | pIC50 | SMILES
13 | > 7.00 | N#Cc1cccc(-c2ccnc(NC(=O)[C@H]3CN(C#N)CCO3)c2)c1 [Example 53, (R)-4-Cyano-N-(4-(3-cyanophenyl)pyridin-2-yl)morpholine-2-carboxamide]
14 | 5.00 to 6.00 | N#CN1CCC[C@H](C(=O)Nc2ncc(-c3ccccc3)s2)C1 [Example 56, (S)-1-Cyano-N-(5-phenylthiazol-2-yl)piperidine-3-carboxamide]
15 | 6.00 to 7.00 | N#Cc1cccc(-c2cc(NC(=O)C3(F)CCCN(C#N)C3)no2)c1 (stereo not drawn) [Example 64, 1-Cyano-N-(5-(3-cyanophenyl)isoxazol-3-yl)-3-fluoropiperidine-3-carboxamide]
16 | 5.00 to 6.00 | CS(=O)(=O)N1CCN(C#N)CC1C(=O)Nc1ncc(-c2ccccc2)s1 (stereo not drawn) [Example 71, 4-Cyano-1-(methylsulfonyl)-N-(5-phenylthiazol-2-yl)piperazine-2-carboxamide]
17 | 6.00 to 7.00 | N#CN1CCC[C@](F)(C(=O)Nc2ccc(-c3ccn[nH]3)cn2)C1 [Example 72, (R)—N-(5-(1H-Pyrazol-5-yl)pyridin-2-yl)-1-cyano-3-fluoropiperidine-3-carboxamide]
18 | 6.00 to 7.00 | N#CN1CCC[C@](F)(C(=O)Nc2ccc(-n3cccn3)cn2)C1 [Example 77, (R)—N-(5-(1H-Pyrazol-1-yl)pyridin-2-yl)-1-cyano-3-fluoropiperidine-3-carboxamide]

— patent US11370784B2 (MISSION THERAPEUTICS LIMITED, priority 2016, dated 2022)
